Experimental data published in patent US11365192B2, “Pyridine compound substituted with azole” (TAISHO PHARMACEUTICAL CO., LTD., priority 2017, dated 2022).

What was measured:
human CYP4A11 = human CYP4A11 (Homo sapiens (Human), UniProt Q02928); experiment: Inhibition test against 20-HETE producing enzyme CYP4A11 (luciferine derivative, luminescence); format: biochemical; settings: human CYP4A11, luciferine derivative, luminescence
Summary of the method: (§1)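 IC50 derived from luminescence after 60 min at room temperature with membrane fractions of E. coli expressing each human CYP (100 μg/mL protein). For CYP4A11, 60 μM luciferin derivative in 100 mM Tris-HCl pH 7.5 with NADPH-regenerating system; for CYP4F2, 2.5 μM substrate, 1 mM NADPH, 50 mM KPO4 pH 7.4.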

human CYP4F2 = human CYP4F2 (Homo sapiens (Human), UniProt P78329); experiment: Inhibition test against 20-HETE producing enzyme CYP4F2 (luciferine derivative, luminescence); format: biochemical; settings: human CYP4F2, luciferine derivative, luminescence
Sequence of human CYP4F2 (P78329 5-520): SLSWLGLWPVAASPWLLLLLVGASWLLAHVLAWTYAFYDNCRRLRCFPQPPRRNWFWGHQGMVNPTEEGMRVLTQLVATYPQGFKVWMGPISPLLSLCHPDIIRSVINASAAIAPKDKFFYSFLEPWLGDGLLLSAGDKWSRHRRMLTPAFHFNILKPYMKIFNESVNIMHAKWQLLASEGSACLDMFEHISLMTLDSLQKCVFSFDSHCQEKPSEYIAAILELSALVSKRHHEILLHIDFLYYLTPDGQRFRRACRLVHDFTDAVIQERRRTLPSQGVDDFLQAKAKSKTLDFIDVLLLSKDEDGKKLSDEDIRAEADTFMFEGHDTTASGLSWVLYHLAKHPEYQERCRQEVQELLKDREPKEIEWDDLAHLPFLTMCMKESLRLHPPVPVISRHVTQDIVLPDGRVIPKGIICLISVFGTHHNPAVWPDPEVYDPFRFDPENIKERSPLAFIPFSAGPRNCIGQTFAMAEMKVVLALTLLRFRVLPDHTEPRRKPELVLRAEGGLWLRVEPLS
Summary of the method: as §1

Sequence of human CYP4A11 (Q02928 5-519): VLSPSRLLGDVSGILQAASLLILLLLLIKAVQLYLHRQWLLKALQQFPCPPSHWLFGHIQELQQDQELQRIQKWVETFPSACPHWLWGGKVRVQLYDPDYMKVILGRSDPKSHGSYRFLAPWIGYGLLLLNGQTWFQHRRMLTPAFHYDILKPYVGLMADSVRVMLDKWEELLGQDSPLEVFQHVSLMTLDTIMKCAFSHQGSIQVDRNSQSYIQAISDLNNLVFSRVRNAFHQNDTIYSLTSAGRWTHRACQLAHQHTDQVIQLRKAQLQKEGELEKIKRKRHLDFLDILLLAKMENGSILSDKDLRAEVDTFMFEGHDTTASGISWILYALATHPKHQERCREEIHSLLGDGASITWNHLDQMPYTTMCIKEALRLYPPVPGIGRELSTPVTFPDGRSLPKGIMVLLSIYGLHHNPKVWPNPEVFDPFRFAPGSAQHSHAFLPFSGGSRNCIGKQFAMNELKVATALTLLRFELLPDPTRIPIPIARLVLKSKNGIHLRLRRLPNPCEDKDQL

IC50 (human CYP4A11) [nM] | IC50 (human CYP4F2) [nM] | SMILES
210 | 200 | O=C(O)C1CC1c1ccc(CCOc2ccc(-c3ccn[nH]3)nc2)cc1 (stereo not drawn) [Example 70-9]
450 | 340 | O=C(O)[C@H]1C[C@@H]1c1ccc(CCOc2ccc(-c3ccn[nH]3)nc2)cc1 [Example 70-10-2]
43 | 330 | O=C(O)C1CC1c1ccc(COc2ccc(-c3ccn[nH]3)nc2)cc1F (stereo not drawn) [Example 70-11, 2-[2-Fluoro-4-[[6-(1H-pyrazol-5-yl)pyridin-3-yl]oxymethyl]phenyl]cyclopropane-1-carboxylic Acid]
170 | 300 | CC[C@@H](OCCCCCCCOc1ccc(-c2ccn[nH]2)nc1)C(=O)O [Example 71-2-1]
87 | 90 | CC[C@H](OCCCCCCCOc1ccc(-c2ccn[nH]2)nc1)C(=O)O [Example 71-2-2]
230 | 320 | O=C(O)COCCCCCCCOc1ccc(-c2ccn[nH]2)nc1 [Example 71-3]
270 | 200 | CC(OCCCCCCCOc1ccc(-c2ccn[nH]2)nc1)C(=O)O (stereo not drawn) [Example 71-4]
96 | 39 | O=C(O)C1(OCCCCCCCOc2ccc(-c3ccn[nH]3)nc2)CC1 [Example 71-5]
82 | 550 | O=C(O)C1CCc2cc(CCOc3ccc(-c4ccn[nH]4)nc3)ccc2O1 (stereo not drawn) [Example 71-7, 6-[2-[6-(1H-Pyrazol-5-yl)pyridin-3-yl]oxyethyl]-3,4-dihydro-2H-chromene-2-carboxylic Acid]
1000 | 430 | O=C(O)[C@@H]1CCc2cc(CCOc3ccc(-c4ccn[nH]4)nc3)ccc2O1 [Example 71-8-1]
48 | 560 | O=C(O)[C@H]1CCc2cc(CCOc3ccc(-c4ccn[nH]4)nc3)ccc2O1 [Example 71-8-2]
310 | 870 | O=C(O)C1COc2cc(CCOc3ccc(-c4ccn[nH]4)nc3)ccc2C1 (stereo not drawn) [Example 71-9]
140 | 260 | O=C(O)C1COc2ccc(CCOc3ccc(-c4ccn[nH]4)nc3)cc2C1 (stereo not drawn) [Example 71-10]
22 | 29000 | O=C(O)C1CCc2c(COc3ccc(-c4ccn[nH]4)nc3)cccc2O1 (stereo not drawn) [Example 71-11]
18 | 1300 | O=C(O)C1COc2c(CCOc3ccc(-c4ccn[nH]4)nc3)cccc2C1 (stereo not drawn) [Example 71-12]
51 | 770 | O=C(O)c1ccc(F)c(CCCOc2ccc(-c3ccn[nH]3)nc2)c1 [Example 71-13]
150 | 1300 | O=C(O)c1cccc(CCCCCOc2ccc(-c3ccn[nH]3)nc2)n1 [Example 71-14]
84 | 1200 | O=C(O)C1CC1c1ccc(COc2ccc(-c3ccn[nH]3)nc2)cc1 (stereo not drawn) [Example 71-15]
190 | 91 | O=C(O)C1CC1c1ccc(CCOc2ccc(-c3ccn[nH]3)nc2)c(F)c1 (stereo not drawn) [Example 71-16]
53 | 540 | O=C(O)C1CC(c2cccc(CCOc3ccc(-c4ccn[nH]4)nc3)c2)C1 (stereo not drawn) [Example 71-19]
500 | 190 | O=C(O)C1CC(c2ccc(CCOc3ccc(-c4ccn[nH]4)nc3)cc2)C1 (stereo not drawn) [Example 71-20]

IC50 (human CYP4A11) [nM] | IC50 (human CYP4F2) [nM] | SMILES
330 | 190 | O=C(O)C1CCc2ccc(CCOc3ccc(-c4ccn[nH]4)nc3)cc2O1 (stereo not drawn) [Example 71-21, 7-[2-[6-(1H-Pyrazol-5-yl)pyridin-3-yl]oxyethyl]-3,4-dihydro-2H-chromene-2-carboxylic Acid]
250 | 310 | O=C(O)[C@H]1CCc2ccc(CCOc3ccc(-c4ccn[nH]4)nc3)cc2O1 [Example 71-22-1]
1000 | 160 | O=C(O)[C@@H]1CCc2ccc(CCOc3ccc(-c4ccn[nH]4)nc3)cc2O1 [Example 71-22-2]
50 | 550 | O=C(O)C1COc2cc(COc3ccc(-c4ccn[nH]4)nc3)ccc2C1 (stereo not drawn) [Example 71-23]
72 | 2100 | O=C(O)C1CC1c1ccc(COc2ccc(-c3ccn[nH]3)nc2)c(F)c1 (stereo not drawn) [Example 71-24]
300 | 4800 | CC(C)(Cc1ccc(COc2ccc(-c3ccn[nH]3)nc2)cc1)C(=O)O [Example 71-25]
39 | 9700 | O=C(O)C1(Cc2cccc(COc3ccc(-c4ccn[nH]4)nc3)c2F)COC1 [Example 71-26]
94 | 15000 | O=C(O)C1(Cc2cccc(CCOc3ccc(-c4ccn[nH]4)nc3)c2F)COC1 [Example 71-27]
1600 | 6200 | CC(C)(Cc1ccc(CCOc2ccc(-c3ccn[nH]3)nc2)cn1)C(=O)O [Example 71-28]
110 | 260 | O=C(O)c1ccc(CCCCCOc2ccc(-c3ccn[nH]3)nc2)cn1 [Example 71-29]
1900 | 11000 | CC(C)(Oc1ccc(CCOc2ccc(-c3ccn[nH]3)nc2)cc1)C(=O)O [Example 71-30]
300 | 15000 | CC(C)(Oc1cccc(CCOc2ccc(-c3ccn[nH]3)nc2)c1)C(=O)O [Example 71-31]
6200 | 23000 | CC(C)(Oc1ccc(CCOc2ccc(-c3ccn[nH]3)nc2)cn1)C(=O)O [Example 71-32]
1600 | 600 | CC(C)(COc1ccc(CCOc2ccc(-c3ccn[nH]3)nc2)cn1)C(=O)O [Example 71-33]
1100 | 36000 | CC(C)(Oc1cc(CCOc2ccc(-c3ccn[nH]3)nc2)ccn1)C(=O)O [Example 71-34]
1400 | 1900 | CC(C)(COc1cc(CCOc2ccc(-c3ccn[nH]3)nc2)ccn1)C(=O)O [Example 71-35]
260 | > 50000 | CC(C)(Oc1cccc(CCOc2ccc(-c3ccn[nH]3)nc2)n1)C(=O)O [Example 71-36]
160 | 3500 | CC(C)(COc1cccc(CCOc2ccc(-c3ccn[nH]3)nc2)n1)C(=O)O [Example 71-37]
1400 | 1900 | CC(C)(Oc1ccc(CCCOc2ccc(-c3ccn[nH]3)nc2)cn1)C(=O)O [Example 71-38]
780 | 51 | CC(C)(COc1ccc(CCCOc2ccc(-c3ccn[nH]3)nc2)cn1)C(=O)O [Example 71-39]
450 | 8700 | CC(C)(Oc1cccc(CCCOc2ccc(-c3ccn[nH]3)nc2)n1)C(=O)O [Example 71-40]

IC50 (human CYP4A11) [nM] | IC50 (human CYP4F2) [nM] | SMILES
160 | 660 | CC(C)(COc1cccc(CCCOc2ccc(-c3ccn[nH]3)nc2)n1)C(=O)O [Example 71-41]
630 | 2100 | CC(C)(Oc1cc(CCCOc2ccc(-c3ccn[nH]3)nc2)ccn1)C(=O)O [Example 71-42]
870 | 250 | CC(C)(COc1cc(CCCOc2ccc(-c3ccn[nH]3)nc2)ccn1)C(=O)O [Example 71-43]
1000 | 37 | CC(=O)N1CC(CCCCCCCCOc2ccc(-c3ccn[nH]3)nc2)(C(=O)O)C1 [Example 71-44]
450 | 54 | CC(C)(OCCCCCCCCOc1ccc(-c2ccn[nH]2)nc1)C(=O)O [Example 72-1]
150 | 14 | O=C(O)C1(CCCCCCCCOc2ccc(-c3ccn[nH]3)nc2)CCOC1 (stereo not drawn) [Example 72-4]
260 | 43 | O=C(O)C1(CCCCCCCCOc2ccc(-c3ccn[nH]3)nc2)CCCO1 (stereo not drawn) [Example 72-5]
270 | 9.4 | O=C(O)C1(CCCCCCCCOc2ccc(-c3ccn[nH]3)nc2)CCS(=O)(=O)CC1 [Example 72-6]
14 | 15000 | O=C(O)C1(Cc2cccc(COc3ccc(-c4ccn[nH]4)nc3)c2F)CC1 [Example 72-7]
15 | 1700 | O=C(O)C1(Cc2cccc(CCOc3ccc(-c4ccn[nH]4)nc3)c2F)CC1 [Example 72-8]
230 | 18 | CC(=O)N1CCC(CCCCCCCCOc2ccc(-c3ccn[nH]3)nc2)(C(=O)O)C1 (stereo not drawn) [Example 72-9]
130 | 1100 | O=C(O)C1(Cc2ccc(CCOc3ccc(-c4ccn[nH]4)nc3)cc2)CC1 [Example 74-1]
88 | 60 | O=C(O)C1CC1c1cccc(CCOc2ccc(-c3ccn[nH]3)nc2)c1F (stereo not drawn) [Example 74-3]
35 | 16000 | O=C(O)C1CC1c1ccc(F)c(CCOc2ccc(-c3ccn[nH]3)nc2)c1 (stereo not drawn) [Example 74-6]
47 | 19000 | O=C(O)C1CC1c1cc(F)cc(CCOc2ccc(-c3ccn[nH]3)nc2)c1 (stereo not drawn) [Example 74-9]
510 | 13000 | O=C(O)C1(Cc2ccc(CCOc3ccc(-c4ccn[nH]4)nc3)cc2)COC1 [Example 74-12, 3-[[4-[2-[6-(1H-Pyrazol-5-yl)pyridin-3-yl]oxyethyl]phenyl]methyl]oxetane-3-carboxylic Acid]
21 | 9300 | CC(C)(NS(=O)(=O)c1cccc(COc2ccc(-c3ccn[nH]3)nc2)c1)C(=O)O [Example 75-1]
38 | 130 | CN(CC(C)(C)C(=O)O)S(=O)(=O)c1cccc(COc2ccc(-c3ccn[nH]3)nc2)c1 [Example 75-2]
36 | 490 | CC(C)(CNS(=O)(=O)c1cccc(COc2ccc(-c3ccn[nH]3)nc2)c1)C(=O)O [Example 75-3]
43 | 29000 | CN(C(C)(C)C(=O)O)S(=O)(=O)c1cccc(COc2ccc(-c3ccn[nH]3)nc2)c1 [Example 75-4]

SMILES | IC50 (human CYP4A11) [nM] | IC50 (human CYP4F2) [nM]
CCC(OCCCCCCCOc1ccc(-c2ccn[nH]2)nc1)C(=O)O (stereo not drawn) [Example 71-1, 2-[7-[6-(1H-Pyrazol-5-yl)pyridin-3-yl]oxyheptoxy]butanoic Acid] | 110 | 140
